These results are taken from patent US20130196984A1, “3-AMINO-5-PHENYL-56-DIHYDRO-2H-[1,4]OXAZINES” (Siena Biotech S.p.A., priority 2009, published 2013).

Assay [1] addresses T1, BACE2 (Homo sapiens, UniProt Q9Y5Z0).
T1 construct: BACE2 enzyme ectodomain (derived from plasmid “pET17b-T7-hu proBACE2”); T7 (N); made in house
T1 sequence (Q9Y5Z0 63-473 limits assumed): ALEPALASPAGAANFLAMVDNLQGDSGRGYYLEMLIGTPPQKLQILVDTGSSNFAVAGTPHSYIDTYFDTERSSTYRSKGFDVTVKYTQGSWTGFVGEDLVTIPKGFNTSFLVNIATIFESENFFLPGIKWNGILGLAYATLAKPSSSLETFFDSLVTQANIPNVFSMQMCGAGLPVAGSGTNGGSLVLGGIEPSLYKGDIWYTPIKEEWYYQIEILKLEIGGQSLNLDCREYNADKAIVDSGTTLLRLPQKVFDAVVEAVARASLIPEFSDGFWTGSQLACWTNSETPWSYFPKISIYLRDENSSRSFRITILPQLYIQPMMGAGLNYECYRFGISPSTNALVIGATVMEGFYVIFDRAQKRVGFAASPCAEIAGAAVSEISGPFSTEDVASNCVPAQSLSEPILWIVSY
The assay is described as follows: Assay A: binding studies using SPR based methods, immobilised BACE2. As to conditions: CM5 chip, immobilised BACE2 enzyme ectodomain, acetate buffer pH 4.6, 4% DMSO. Background: SPR reads the build-up and loss of mass on a sensor chip optically.

Assay [2] has as its target T2, BACE2 (Rattus norvegicus, UniProt Q6IE75).
T2 construct: endogenous cellular BACE2 in the Ins1e rat cell line; endogenous in cells; host or cells: INS-TMEM27 (INS1e-derived rat cell line with doxycycline-inducible full-length hTMEM27)
T2 sequence (Q6IE75 63-514): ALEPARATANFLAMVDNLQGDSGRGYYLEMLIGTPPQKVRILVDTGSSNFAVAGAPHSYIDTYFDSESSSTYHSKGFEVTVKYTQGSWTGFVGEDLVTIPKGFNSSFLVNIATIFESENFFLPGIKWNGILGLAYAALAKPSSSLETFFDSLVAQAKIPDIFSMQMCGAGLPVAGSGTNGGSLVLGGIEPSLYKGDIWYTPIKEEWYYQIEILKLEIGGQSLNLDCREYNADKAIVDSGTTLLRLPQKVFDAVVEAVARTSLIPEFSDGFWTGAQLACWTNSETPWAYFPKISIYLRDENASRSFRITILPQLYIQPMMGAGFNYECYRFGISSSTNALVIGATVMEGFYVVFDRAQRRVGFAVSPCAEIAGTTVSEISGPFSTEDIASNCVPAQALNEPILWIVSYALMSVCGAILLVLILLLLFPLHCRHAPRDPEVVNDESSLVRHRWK
In words: Assay for BACE inhibition by measuring cellular TMEM27 cleavage.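 Note: inhibitor added 2 h before doxycycline-induced hTMEM27 expression, supernatant collected after further 46 h, endogenous BACE2 activity read as reduced TMEM27 shedding.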 The format is cell-based. As to conditions: INS-TMEM27 (INS1e-derived) cells, ELISA of shed human TMEM27 in supernatant.

Assay [3] addresses T3, BACE1 (Homo sapiens, UniProt P56817). The assay is described as follows: Cellular Abeta-lowering assay. As to conditions: HEK293 cells stably transfected with human APP wt (APP695), Aβ40 ELISA of supernatant after 18-20 hrs. Also noted: endogenous in cells; host or cells: HEK293 stably transfected with human APP695 wt. The format is cell-based.
For assay [4], the target named is T3, BACE1. In words: Assay A: binding studies using SPR based methods, immobilised BACE1.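 Note: KD from a 1:1 kinetic fit (koff/kon) of real-time association and dissociation curves, or for fast binders from end-of-association equilibrium responses plotted against log concentration.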 As to conditions: CM5 chip, immobilised 6his-tagged full length BACE 1, acetate buffer pH 4.6, 4% DMSO. More on the design: 6his-tagged full length BACE 1 expressed in SF9 cells; 6His; made in house; host or cells: SF9 insect cells.

Structures can show the parent of a compound that is named as a salt. Some results are limits rather than exact numbers.

T3 sequence (P56817 46-501): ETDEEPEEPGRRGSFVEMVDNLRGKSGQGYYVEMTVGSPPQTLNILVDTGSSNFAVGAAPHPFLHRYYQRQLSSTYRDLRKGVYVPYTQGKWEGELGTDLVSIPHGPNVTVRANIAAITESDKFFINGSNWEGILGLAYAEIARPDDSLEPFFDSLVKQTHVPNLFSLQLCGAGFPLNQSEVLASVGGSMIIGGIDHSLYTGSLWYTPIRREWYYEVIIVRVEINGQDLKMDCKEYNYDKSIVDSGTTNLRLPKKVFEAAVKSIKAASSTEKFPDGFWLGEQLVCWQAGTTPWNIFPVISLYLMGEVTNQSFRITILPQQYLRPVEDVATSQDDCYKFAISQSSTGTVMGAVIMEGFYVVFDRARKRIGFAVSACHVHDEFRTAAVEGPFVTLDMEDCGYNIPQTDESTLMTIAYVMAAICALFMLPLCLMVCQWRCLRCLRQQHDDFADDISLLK

Regarding `C[C@@]1(c2cc(NC(=O)C3CC3(F)F)ccc2F)COCC(N)=N1` (mixture of isomers) [Example 53, (RS)-2,2-difluoro-cyclopropanecarboxylic acid [3-((R)-5-amino-3-methyl-3,6-dihydro-2H-[1,4]oxazin-3-yl)-4-fluoro-phenyl]-amide], the figures for the Kd at BACE2 [1] and on BACE1 [4] were 1220 nM and 3950 nM, respectively. Moreover, the values for the IC50 on BACE2 [2] and at BACE1 [3] were 910 nM and 620 nM, respectively.

As to `CC1(C)OCC(N)=N[C@]1(C)c1cc(NC(=O)C2CC2(F)F)ccc1F` (mixture of isomers) [Example 56, (RS)-2,2-difluoro-cyclopropanecarboxylic [3-((R)-5-amino-2,2,3-trimethyl-3,6-dihydro-2H-[1,4]oxazin-3-yl)-4-fluoro-phenyl]-amide], the Kd at BACE2 [1] came to 1720 nM; at BACE1 [4], 10800 nM. The results for the IC50 at BACE2 [2] and against BACE1 [3] were above 10000 nM and 1190 nM, respectively.

With `CC(F)C(=O)Nc1ccc(F)c([C@]2(C)COCC(N)=N2)c1` (mixture of isomers) [Example 87, (RS)—N-[3-((R)-5-amino-3-methyl-3,6-dihydro-2H-[1,4]oxazin-3-yl)-4-fluoro-phenyl]-2-fluoro-propionamide formate], the Kd on BACE2 [1] is 477 nM; on BACE1 [4], 474 nM. Besides, the IC50 is 52 nM at BACE2 [2] and 120 nM on BACE1 [3].

For `CC1(c2cccc(NC(=O)c3ncc(Cl)cc3Cl)c2)COCC(N)=N1` (racemic) [Example 2, (RS)-3,5-dichloro-pyridine-2-carboxylic acid [3-(5-amino-3-methyl-3,6-dihydro-2H-[1,4]oxazin-3-yl)-phenyl]-amide], the Kd at BACE2 [1] is 9 nM; at BACE1 [4] it was 50 nM. Besides, the IC50 against BACE2 [2] stood at 48 nM; on BACE1 [3], 16 nM.

For `Cc1nc(C(=O)Nc2cccc(C3(C)COCC(N)=N3)c2)co1` (racemic) [Example 12, (RS)-2-methyl-oxazole-4-carboxylic acid [3-(5-amino-3-methyl-3,6-dihydro-2H-[1,4]oxazin-3-yl)-phenyl]-amide], the IC50 against BACE2 [2] amounted to 17 nM; against BACE1 [3], 20 nM.

In the case of `CC1(c2cc(NC(=O)C(F)(F)C(F)(F)F)ccc2F)COCC(N)=N1` (racemic) [Example 26, (RS)—N-[3-(5-Amino-3-methyl-3,6-dihydro-2H-[1,4]oxazin-3-yl)-4-fluoro-phenyl]-2,2,3,3,3-pentafluoro-propionamide], the half-inhibitory concentration (IC50) stood at 2230 nM on BACE2 [2] and 375 nM on BACE1 [3].

`CC1(c2cc(NC(=S)c3ccc(Cl)cc3)ccc2F)COCC(N)=N1` (racemic) [Example 27, (RS)—N-[3-(5-Amino-3-methyl-3,6-dihydro-2H-[1,4]oxazin-3-yl)-4-fluoro-phenyl]-4-chloro-thiobenzamide]: the IC50 at BACE2 [2] was 320 nM; against BACE1 [3], 1130 nM.

Regarding `C[C@@]1(c2cc(NC(=O)C(F)C(F)(F)F)ccc2F)COCC(N)=N1` (mixture of isomers) [Example 89, formate], the IC50 against BACE2 [2] is 820 nM; on BACE1 [3], 500 nM. Besides, the equilibrium dissociation constant (Kd) at BACE1 [4] was 805 nM.

With `Cc1nc(C(F)(F)F)c(C(=O)Nc2ccc(F)c([C@]3(C)COCC(N)=N3)c2)s1` [Example 47, 2-methyl-4-trifluoromethyl-thiazole-5-carboxylic acid [3-((R)-5-amino-3-methyl-3,6-dihydro-2H-[1,4]oxazin-3-yl)-4-fluoro-phenyl]-amide], the IC50 came out at 730 nM at BACE2 [2] and 800 nM against BACE1 [3].

With `CC1(C)OCC(N)=N[C@]1(C)c1cc(NC(=O)C2(C(F)(F)F)CC2)ccc1F` [Example 55, 1-trifluoromethyl-cyclopropanecarboxylic acid [3-((R)-5-amino-2,2,3-trimethyl-3,6-dihydro-2H-[1,4]oxazin-3-yl)-4-fluoro-phenyl]-amide], the Kd on BACE2 [1] was determined as 2300 nM; at BACE1 [4] it was 6400 nM. At BACE2 [2], half-maximal inhibition (IC50) required 46 nM.

As usually defined, the Kd is the equilibrium constant for the complex coming apart. A lower Kd goes with a tighter complex. For orientation: IC50 means the concentration that gives 50% inhibition. Low values mean higher potency, high ones lower potency.
